Test results as given in publication PMC11943725, “Construction of a Plasmid-Free Escherichia coli Strain with Enhanced Heme Supply to Produce Active Hemoglobins” (Metabolites, 2025).

Biological target: T1, human hemoglobin (hHb) (Homo sapiens, UniProt P68871+P69905)
T1 construct: gene HBA1; tetramer
Test: peroxidase activity of purified protein with TMB Chromogen Solution, OD370
Format: biochemical
Conditions: chromogenic peroxidase substrate; holo fraction incomplete

T1 sequence (P69905 2-142): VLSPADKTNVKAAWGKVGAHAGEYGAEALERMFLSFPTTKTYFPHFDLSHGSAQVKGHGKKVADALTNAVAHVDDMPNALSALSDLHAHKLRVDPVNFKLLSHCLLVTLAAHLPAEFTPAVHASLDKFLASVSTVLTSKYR
T1 sequence (P68871 2-147): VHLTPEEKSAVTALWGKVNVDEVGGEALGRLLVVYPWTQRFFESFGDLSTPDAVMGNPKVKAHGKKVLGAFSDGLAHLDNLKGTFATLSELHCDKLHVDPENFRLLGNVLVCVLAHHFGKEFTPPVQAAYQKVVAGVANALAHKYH

Cc1cc(-c2cc(C)c(N)c(C)c2)cc(C)c1N [TMB]
peroxidase activity of purified protein with TMB Chromogen Solution, OD370: The peroxidase activities of purified proteins were detected using TMB Chromogen Solution
